Assay results taken from the supplement of paper PMC10307832.

Experiments:
Assay in all cases: relative viability (nuclei count vs DMSO), 5 days (fraction); higher = more cells survive
IPA-3 + Foretinib = compound: C1=CC=C2C(=C1)C=CC(=C2SSC3=C(C=CC4=CC=CC=C43)O)O [IPA-3] + COc1cc2c(Oc3ccc(NC(=O)C4(C(=O)Nc5ccc(F)cc5)CC4)cc3F)ccnc2cc1OCCCN1CCOCC1 [Foretinib] (partner 0.25 µM)
Outline: (§1)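 For relative viability, nuclei counts in treated wells were divided by those in vehicle wells. Lung cancer cell lines had been pin-tool dosed in 1536-well plates the day after seeding and cultured for 5 days, then fixed and stained in one step (final 0.05% Triton X-100, 1% formaldehyde, 1 ug/ml Hoechst) and imaged at 4×. Doses were one drug alone or a fixed anchor-drug dose plus five library-drug doses (not always all listed) in √10 steps, and values are duplicate-plate medians.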

RAF265 + Tozasertib = compound: Cn1c(Nc2ccc(C(F)(F)F)cc2)nc2cc(Oc3ccnc(-c4ncc(C(F)(F)F)[nH]4)c3)ccc21 [RAF265] + Cc1cc(Nc2cc(N3CCN(C)CC3)nc(Sc3ccc(NC(=O)C4CC4)cc3)n2)n[nH]1 [Tozasertib] (partner 0.1 µM)
Outline: as §1

Doramapimod + Pemetrexed = compound: Cc1ccc(-n2nc(C(C)(C)C)cc2NC(=O)Nc2ccc(OCCN3CCOCC3)c3ccccc23)cc1 [Doramapimod] + Nc1nc2[nH]cc(CCc3ccc(C(=O)N[C@@H](CCC(=O)O)C(=O)O)cc3)c2c(=O)[nH]1 [Pemetrexed] (partner 0.2 µM)
Outline: as §1

RAF265 + Decitabine = compound: Cn1c(Nc2ccc(C(F)(F)F)cc2)nc2cc(Oc3ccnc(-c4ncc(C(F)(F)F)[nH]4)c3)ccc21 [RAF265] + Nc1ncn([C@H]2C[C@H](O)[C@@H](CO)O2)c(=O)n1 [Decitabine] (partner 2 µM)
Outline: as §1

Row | Cell Line | relative viability (IPA-3 + Foretinib; first compound 0.2 µM) | relative viability (IPA-3 + Foretinib; first compound 0.6325 µM) | relative viability (IPA-3 + Foretinib; first compound 2 µM) | relative viability (IPA-3 + Foretinib; first compound 6.325 µM) | relative viability (IPA-3 + Foretinib; first compound 20 µM) | relative viability (RAF265 + Tozasertib; first compound 0.01 µM) | relative viability (RAF265 + Tozasertib; first compound 0.03162 µM) | relative viability (RAF265 + Tozasertib; first compound 0.1 µM) | relative viability (RAF265 + Tozasertib; first compound 0.3162 µM) | relative viability (RAF265 + Tozasertib; first compound 1 µM) | relative viability (Doramapimod + Pemetrexed; first compound 0.02 µM) | relative viability (Doramapimod + Pemetrexed; first compound 0.06325 µM) | relative viability (Doramapimod + Pemetrexed; first compound 0.2 µM) | relative viability (Doramapimod + Pemetrexed; first compound 0.6325 µM) | relative viability (Doramapimod + Pemetrexed; first compound 2 µM) | relative viability (RAF265 + Decitabine; first compound 0.01 µM) | relative viability (RAF265 + Decitabine; first compound 0.03162 µM) | relative viability (RAF265 + Decitabine; first compound 0.1 µM) | relative viability (RAF265 + Decitabine; first compound 0.3162 µM) | relative viability (RAF265 + Decitabine; first compound 1 µM)
1 | NCI-H1755 | 0.923 | 0.884 | 0.879 | 0.85 | 0.952 | 0.556 | 0.634 | 0.598 | 0.552 | 0.402 | 0.328 | 0.371 | 0.435 | 0.394 | 0.35 | 0.693 | 0.661 | 0.728 | 0.723 | 0.642
2 | NCI-H23 | 1.03 | 1.02 | 0.971 | 1 | 1.17 | 0.368 | 0.373 | 0.334 | 0.254 | 0.172 | 0.607 | 0.749 | 0.679 | 0.703 | 0.533 | 0.335 | 0.317 | 0.258 | 0.266 | 0.175
3 | 201T | 1.33 | 1.11 | 1.17 | 1.09 | 1.15 | 0.955 | 0.862 | 1.03 | 0.939 | 0.696 | 0.308 | 0.333 | 0.347 | 0.331 | 0.318 | 0.879 | 0.839 | 0.864 | 0.884 | 0.858
4 | NCI-H1734 | 0.972 | 0.803 | 0.845 | 0.92 | 0.934 | 0.306 | 0.276 | 0.255 | 0.232 | 0.215 | 0.416 | 0.431 | 0.419 | 0.382 | 0.39 | 0.515 | 0.424 | 0.47 | 0.41 | 0.304
5 | NCI-H520 | 0.885 | 0.757 | 0.743 | 0.613 | 0.837 | 0.448 | 0.414 | 0.384 | 0.491 | 0.338 | 0.607 | 0.638 | 0.732 | 0.537 | 0.683 | 0.567 | 0.418 | 0.478 | 0.452 | 0.345
6 | NCI-H1650 | 1.27 | 1.29 | 1.39 | 1.03 | 1.45 | 0.377 | 0.425 | 0.473 | 0.446 | 0.304 | 0.345 | 0.357 | 0.447 | 0.387 | 0.375 | 0.424 | 0.439 | 0.426 | 0.4 | 0.472
7 | NCI-H1355 | 1 | 0.953 | 1.02 | 0.946 | 1.08 | 0.575 | 0.515 | 0.587 | 0.47 | 0.19 | 1.06 | 1.04 | 0.999 | 1.05 | 0.894 | 0.387 | 0.323 | 0.363 | 0.326 | 0.26
8 | NCI-H1915 | 1.13 | 1.06 | 1.08 | 1.11 | 1.11 | 0.437 | 0.428 | 0.457 | 0.278 | 0.163 | 0.452 | 0.464 | 0.498 | 0.699 | 0.419 | 0.262 | 0.278 | 0.258 | 0.236 | 0.193
9 | BEN | 0.733 | 0.598 | 0.729 | 0.889 | 0.614 | 0.441 | 0.575 | 0.468 | 0.554 | 0.407 | 0.74 | 0.849 | 0.795 | 0.673 | 0.795 | 0.835 | 0.722 | 0.769 | 0.737 | 0.655
10 | NCI-H3122 | 1.01 | 0.958 | 0.941 | 0.955 | 1.06 | 0.362 | 0.492 | 0.424 | – | 0.283 | 0.197 | 0.207 | 0.187 | 0.207 | 0.196 | 0.408 | 0.379 | 0.429 | 0.304 | 0.29
11 | SK-MES-1 | 0.982 | 0.889 | 0.892 | 0.953 | 1.22 | 0.853 | 0.603 | 0.399 | 0.348 | 0.275 | 0.895 | 0.96 | 0.986 | 0.942 | 0.795 | 0.383 | 0.295 | 0.3 | 0.231 | 0.221
12 | HOP-62 | 1.28 | 1.04 | 1.21 | 1.09 | 1.19 | 0.338 | 0.326 | 0.406 | 0.515 | 0.225 | 0.242 | 0.306 | 0.295 | 0.326 | 0.309 | 0.223 | 0.215 | 0.238 | 0.226 | 0.186
13 | HCC-366 | 0.929 | 0.851 | 0.911 | 0.833 | 0.856 | 0.137 | 0.165 | 0.138 | 0.0437 | 0.0369 | 0.147 | 0.197 | 0.212 | 0.186 | 0.178 | 0.321 | 0.319 | 0.402 | 0.331 | 0.213
14 | NCI-H2347 | 1.24 | 0.916 | 0.908 | 0.902 | 0.899 | 0.653 | 0.507 | 0.809 | 0.436 | 0.325 | 0.42 | 0.443 | 0.444 | 0.436 | 0.376 | 0.676 | 0.561 | 0.574 | 0.526 | 0.382
15 | SW 900 | 1.04 | 0.792 | 0.975 | 1.14 | 1.08 | 0.648 | 0.583 | 0.594 | 0.526 | 0.295 | 0.513 | 0.513 | 0.478 | 0.502 | 0.479 | 0.51 | 0.429 | 0.505 | 0.412 | 0.407
16 | LXF-289 | 1 | 0.919 | 0.993 | 1.01 | 1.11 | 0.217 | 0.172 | 0.174 | 0.205 | 0.108 | 0.959 | 0.914 | 0.83 | 0.863 | 0.971 | 0.446 | 0.399 | 0.393 | 0.345 | 0.26
